Measurements: patent US20240190890A1, “MK2 INHIBITORS AND USES THEREOF” (Bristol-Myers Squibb Company, priority 2022, published 2024)

Target: p38a activated, mitogen-activated protein kinase-activated protein kinase 2 (MAPKAP-K2 or MK2) enzyme (Homo sapiens (Human), UniProt P49137)
Assay: MK2 Omnia continuous-read kinase assay for compound potency
Type: biochemical
Details: [MK-2]=0.4 nM, [ATP]=10 μM, [ST3-Sox]=10 μM; room temperature
Procedure, shortened: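 Continuous Sox-peptide fluorescence read (ex360/em485) every 71 s over 2 h at room temperature. Reactions: 10 μM each of ATP (at apparent Km) and S/T3-Sox, 0.4 nM p38a-activated MK2, pH 7.5 Tris/MgCl2 buffer. Initial rates yield % inhibition and IC50; single-exponential kobs values yield apparent kinact/KI.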

p38a activated, mitogen-activated protein kinase-activated protein kinase 2 (MAPKAP-K2 or MK2) enzyme, sequence (P49137 whole entry): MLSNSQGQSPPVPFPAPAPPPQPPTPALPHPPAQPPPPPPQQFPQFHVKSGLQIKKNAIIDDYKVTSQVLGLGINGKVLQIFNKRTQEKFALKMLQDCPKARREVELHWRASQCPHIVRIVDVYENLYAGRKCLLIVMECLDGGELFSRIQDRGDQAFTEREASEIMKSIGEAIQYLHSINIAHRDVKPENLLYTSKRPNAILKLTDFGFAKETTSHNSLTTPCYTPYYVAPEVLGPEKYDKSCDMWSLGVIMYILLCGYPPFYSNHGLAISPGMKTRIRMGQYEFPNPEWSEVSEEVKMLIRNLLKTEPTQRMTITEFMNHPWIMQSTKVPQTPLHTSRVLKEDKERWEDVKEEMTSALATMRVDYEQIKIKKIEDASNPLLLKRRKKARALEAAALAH

Compound	IC50 [nM]
C#Cc1cc(-c2ccc3c(ccc4sc5c(c43)NC[C@@H](C)NC5=O)n2)cc(CN2C[C@@H](C)O[C@H](C)C2)n1 [Example I-188, (R)-3-(2-(((2R,6R)-2,6-dimethylmorpholino)methyl)-6-ethynylpyridin-4-yl)-10-methyl-9,10,11,12-tetrahydro-8H-[1,4]diazepino[5′,6′:4,5]thieno[3,2-f]quinolin-8-one]	25
C=Cc1cc(-c2ccc3c(ccc4sc5c(c43)NC[C@@H](C)NC5=O)n2)cc(C2=CCN(C)CC2)n1 [Example I-101, (R)-10-methyl-3-(1′-methyl-6-vinyl-1′,2′,3′,6′-tetrahydro-[2,4′-bipyridin]-4-yl)-9,10,11,12-tetrahydro-8H-[1,4]diazepino[5′,6′:4,5]thieno[3,2-f]quinolin-8-one]	8
C=C(CN(C)C)c1cc(-c2ccc3c(ccc4sc5c(c43)NC[C@@H](C)NC5=O)n2)ccn1 [Example I-117, (R)-3-(2-(3-(dimethylamino)prop-1-en-2-yl)pyridin-4-yl)-10-methyl-9,10,11,12-tetrahydro-8H-[1,4]diazepino[5′,6′:4,5]thieno[3,2-f]quinolin-8-one]	6
C=Cc1cc(-c2ccc3c(ccc4sc5c(c43)NC[C@@H](C)NC5=O)n2)nc(N2CCN(C)CC2)n1 [Example I-19, (R)-10-methyl-3-(2-(4-methylpiperazin-1-yl)-6-vinylpyrimidin-4-yl)-9,10,11,12-tetrahydro-8H-[1,4]diazepino[5′,6′:4,5]thieno[3,2-f]quinolin-8-one]	4
C=Cc1ncc(F)c(-c2ccc3c(ccc4sc5c(c43)NC[C@@H](C)NC5=O)n2)n1 [Example I-2, (R)-3-(5-fluoro-2-vinylpyrimidin-4-yl)-10-methyl-9,10,11,12-tetrahydro-8H-[1,4]diazepino[5′,6′:4,5]thieno[3,2-f]quinolin-8-one]	133
CC#Cc1nccc(-c2ccc3c(ccc4sc5c(c43)NC[C@@H](C)NC5=O)n2)n1 [Example I-53, (R)-10-methyl-3-(2-(prop-1-yn-1-yl)pyrimidin-4-yl)-9,10,11,12-tetrahydro-8H-[1,4]diazepino[5′,6′:4,5]thieno[3,2-f]quinolin-8-one]	213
C=Cc1cc(-c2ccc3c(ccc4sc5c(c43)NC[C@@H](C)NC5=O)n2)cc(N2CCNCC2)n1 [Example I-175, (R)-10-methyl-3-(2-(piperazin-1-yl)-6-vinylpyridin-4-yl)-9,10,11,12-tetrahydro-8H-[1,4]diazepino[5′,6′:4,5]thieno[3,2-f]quinolin-8-one]	10
C#Cc1ncc(C)c(-c2ccc3c(ccc4sc5c(c43)NC[C@@H](C)NC5=O)n2)n1 [Example I-41, (R)-3-(2-ethynyl-5-methylpyrimidin-4-yl)-10-methyl-9,10,11,12-tetrahydro-8H-[1,4]diazepino[5′,6′:4,5]thieno[3,2-f]quinolin-8-one]	199
C#Cc1cc(-c2ccc3c(ccc4sc5c(c43)NC[C@@H](C)NC5=O)n2)cc(N2CCN(CC)CC2)n1 [Example I-174, (R)-3-(2-(4-ethylpiperazin-1-yl)-6-ethynylpyridin-4-yl)-10-methyl-9,10,11,12-tetrahydro-8H-[1,4]diazepino[5′,6′:4,5]thieno[3,2-f]quinolin-8-one]	98
C=C(F)c1cc(-c2ccc3c(ccc4sc5c(c43)NC[C@@H](C)NC5=O)n2)ccn1 [Example I-108, (R)-3-(2-(1-fluorovinyl)pyridin-4-yl)-10-methyl-9,10,11,12-tetrahydro-8H-[1,4]diazepino[5′,6′:4,5]thieno[3,2-f]quinolin-8-one]	122
C/C=C\c1ncc(COCC)c(-c2ccc3c(ccc4sc5c(c43)NC[C@@H](C)NC5=O)n2)n1 [Example I-49, (R,Z)-3-(5-(ethoxymethyl)-2-(prop-1-en-1-yl)pyrimidin-4-yl)-10-methyl-9,10,11,12-tetrahydro-8H-[1,4]diazepino[5′,6′:4,5]thieno[3,2-f]quinolin-8-one]	474
C#Cc1cc(-c2ccc3c(ccc4sc5c(c43)NC[C@@H](C)NC5=O)n2)nc(COCC)n1 [Example I-39, (R)-3-(2-(ethoxymethyl)-6-ethynylpyrimidin-4-yl)-10-methyl-9,10,11,12-tetrahydro-8H-[1,4]diazepino[5′,6′:4,5]thieno[3,2-f]quinolin-8-one]	8
C[C@@H]1CNc2c(sc3ccc4nc(-n5ccc(Cl)n5)ccc4c23)C(=O)N1 [Example I-165, (R)-3-(3-chloro-1H-pyrazol-1-yl)-10-methyl-9,10,11,12-tetrahydro-8H-[1,4]diazepino[5′,6′:4,5]thieno[3,2-f]quinolin-8-one]	81
C#Cc1cc(-c2ccc3c(ccc4sc5c(c43)NC[C@@H](C)NC5=O)n2)cc(CN2CCOCC2)n1 [Example I-169, (R)-3-(2-ethynyl-6-(morpholinomethyl)pyridin-4-yl)-10-methyl-9,10,11,12-tetrahydro-8H-[1,4]diazepino[5′,6′:4,5]thieno[3,2-f]quinolin-8-one]	39
(R)-3-(2-chloro-5-(ethoxymethyl)pyrimidin-4-yl)-10-methyl-9,10,11,12-tetrahydro-8H-[1,4]diazepino[5′,6′:4,5]thieno[3,2-f]quinolin- [Example I-3]	107
C#Cc1cc(-c2ccc3c(ccc4sc5c(c43)NC[C@@H](C)NC5=O)n2)c(N(C)C)nn1 [Example I-105, (R)-3-(3-(dimethylamino)-6-ethynylpyridazin-4-yl)-10-methyl-9,10,11,12-tetrahydro-8H-[1,4]diazepino[5′,6′:4,5]thieno[3,2-f]quinolin-8-one]	118
C[C@@H]1CNc2c(sc3ccc4nc(-c5cc(Cl)nc(Cl)c5)ccc4c23)C(=O)N1 [Example I-68, (R)-3-(2,6-dichloropyridin-4-yl)-10-methyl-9,10,11,12-tetrahydro-8H-[1,4]diazepino[5′,6′:4,5]thieno[3,2-f]quinolin-8-one]	472
C[C@@H]1CNc2c(sc3ccc4nc(-c5cc(Cl)nc(CO)n5)ccc4c23)C(=O)N1 [Example I-74, (R)-3-(6-chloro-2-(hydroxymethyl)pyrimidin-4-yl)-10-methyl-9,10,11,12-tetrahydro-8H-[1,4]diazepino[5′,6′:4,5]thieno[3,2-f]quinolin-8-one]	4
C#Cc1nc(CN2CCN(C)CC2)cc(-c2ccc3c(ccc4sc5c(c43)NC[C@@H](C)NC5=O)n2)n1 [Example I-89, (R)-3-(2-ethynyl-6-((4-methylpiperazin-1-yl)methyl)pyrimidin-4-yl)-10-methyl-9,10,11,12-tetrahydro-8H-[1,4]diazepino[5′,6′:4,5]thieno[3,2-f]quinolin-8-one]	26

More lines, now with the values ahead:

IC50 [nM]	Compound
1	C=Cc1nccn1-c1ccc2c(ccc3sc4c(c32)NC[C@@H](CF)NC4=O)n1 [Example I-255, (S)-10-(fluoromethyl)-3-(2-vinyl-1H-imidazol-1-yl)-9,10,11,12-tetrahydro-8H-[1,4]diazepino[5′,6′:4,5]thieno[3,2-f]quinolin-8-one]
79	C#Cc1nccc(-c2ccc3c(ccc4sc5c(c43)NC[C@@H](C)NC5=O)n2)c1F [Example I-218, (R)-3-(2-ethynyl-3-fluoropyridin-4-yl)-10-methyl-9,10,11,12-tetrahydro-8H-[1,4]diazepino[5′,6′:4,5]thieno[3,2-f]quinolin-8-one]
15	C=Cc1ncc(-c2ccc3c(ccc4sc5c(c43)NC[C@@H](C)NC5=O)n2)s1 [Example I-209, (R)-10-methyl-3-(2-vinylthiazol-5-yl)-9,10,11,12-tetrahydro-8H-[1,4]diazepino[5′,6′:4,5]thieno[3,2-f]quinolin-8-one]
35	C=Cc1cc(-c2ccc3c(ccc4sc5c(c43)NC[C@@H](C)NC5=O)n2)c(COCC)cn1 [Example I-262, (R)-3-(5-(ethoxymethyl)-2-vinylpyridin-4-yl)-10-methyl-9,10,11,12-tetrahydro-8H-[1,4]diazepino[5′,6′:4,5]thieno[3,2-f]quinolin-8-one]
2	C=Cc1ncnn1-c1ccc2c(ccc3sc4c(c32)NC[C@@H](C)NC4=O)n1 [Example I-214, (R)-10-methyl-3-(5-vinyl-1H-1,2,4-triazol-1-yl)-9,10,11,12-tetrahydro-8H-[1,4]diazepino[5′,6′:4,5]thieno[3,2-f]quinolin-8-one]
68	C[C@@H]1CNc2c(sc3ccc4nc(-c5ccnc(Cl)c5)ccc4c23)C(=O)N1 [Example I-272, (R)-3-(2-chloropyridin-4-yl)-10-methyl-9,10,11,12-tetrahydro-8H-[1,4]diazepino[5′,6′:4,5]thieno[3,2-f]quinolin-8-one]
91	C[C@@H]1CNc2c(sc3ccc4nc(-n5cnc(Cl)n5)ccc4c23)C(=O)N1 [Example I-210, (R)-3-(3-chloro-1H-1,2,4-triazol-1-yl)-10-methyl-9,10,11,12-tetrahydro-8H-[1,4]diazepino[5′,6′:4,5]thieno[3,2-f]quinolin-8-one]
28	C=Cc1nc(C)c(C)n1-c1ccc2c(ccc3sc4c(c32)NC[C@@H](C)NC4=O)n1 [Example I-231, (R)-3-(4,5-dimethyl-2-vinyl-1H-imidazol-1-yl)-10-methyl-9,10,11,12-tetrahydro-8H-[1,4]diazepino[5′,6′:4,5]thieno[3,2-f]quinolin-8-one]
674	C=Cc1cc(-c2ccc3c(ccc4sc5c(c43)NC[C@@H](C)NC5=O)n2)cc(N2CCC(C(F)(F)F)CC2)n1 [Example I-202, (R)-10-methyl-3-(2-(4-(trifluoromethyl)piperidin-1-yl)-6-vinylpyridin-4-yl)-9,10,11,12-tetrahydro-8H-[1,4]diazepino[5′,6′:4,5]thieno[3,2-f]quinolin-8-one]
47	C=Cc1cc(-c2ccc3c(ccc4sc5c(c43)NC[C@@H](C)NC5=O)n2)c(CN2CC3(COC3)C2)cn1 [Example I-263, (R)-3-(5-((2-oxa-6-azaspiro[3.3]heptan-6-yl)methyl)-2-vinylpyridin-4-yl)-10-methyl-9,10,11,12-tetrahydro-8H-[1,4]diazepino[5′,6′:4,5]thieno[3,2-f]quinolin-8-one]
